Source: ChEMBL document CHEMBL4808233, “Discovery and evaluation of non-basic small molecule modulators of the atypical chemokine receptor CXCR7” (Bioorg Med Chem Lett, 2021)

How the values were obtained:
[1] = Lipophilicity, logD of the compound at pH 7.4 by shake flask method; format: physicochemical; details: buffer
[2] = AUC infinity in C57BL6 mouse at 2 mg/kg, iv; format: ADME, organism-based; design: time infinity, route intravenous, dose 2 mg/kg; details: in vivo
[3] = Cmax in C57BL6 mouse at 5 mg/kg, sc; format: ADME, organism-based; design: route subcutaneous, dose 5 mg/kg; details: in vivo
[4] = Half life in C57BL6 mouse at 10 mg/kg, po; format: ADME, organism-based; details: in vivo
[5] = Protein binding in C57BL6 mouse plasma assessed as unbound fraction; format: ADME, cell-free
[6] = Cmax in C57BL6 mouse at 10 mg/kg, po; format: ADME, organism-based; design: route oral, dose 10 mg/kg; details: in vivo
[7] = Tmax in C57BL6 mouse at 10 mg/kg, po; format: ADME, organism-based; details: in vivo
[8] = Half life in C57BL6 mouse at 2 mg/kg, iv; format: ADME, organism-based; details: in vivo
[9] = Oral bioavailability in C57BL6 mouse at 10 mg/kg; format: ADME, organism-based; details: in vivo
[10] = Volume of distribution at steady state in C57BL6 mouse at 2 mg/kg, iv; format: ADME, organism-based; details: in vivo, read-out: Vdss
[11] = Half life in C57BL6 mouse at 5 mg/kg, sc; format: ADME, organism-based; details: in vivo
[12] = Unbound cmax in C57BL6 mouse; format: ADME; details: in vivo
[13] = Tmax in C57BL6 mouse at 5 mg/kg, sc; format: ADME, organism-based; details: in vivo
[14] = AUC infinity in C57BL6 mouse at 2 mg/kg, sc; format: ADME, organism-based; design: time infinity, route subcutaneous, dose 2 mg/kg; details: in vivo
[15] = Bioavailability in C57BL6 mouse at 5 mg/kg, sc; format: ADME, organism-based; details: in vivo
[16] = target: Atypical chemokine receptor 3 (Mus musculus, UniProt P56485); experiment: Binding affinity to mouse CXCR7
Atypical chemokine receptor 3, sequence (P56485 whole entry): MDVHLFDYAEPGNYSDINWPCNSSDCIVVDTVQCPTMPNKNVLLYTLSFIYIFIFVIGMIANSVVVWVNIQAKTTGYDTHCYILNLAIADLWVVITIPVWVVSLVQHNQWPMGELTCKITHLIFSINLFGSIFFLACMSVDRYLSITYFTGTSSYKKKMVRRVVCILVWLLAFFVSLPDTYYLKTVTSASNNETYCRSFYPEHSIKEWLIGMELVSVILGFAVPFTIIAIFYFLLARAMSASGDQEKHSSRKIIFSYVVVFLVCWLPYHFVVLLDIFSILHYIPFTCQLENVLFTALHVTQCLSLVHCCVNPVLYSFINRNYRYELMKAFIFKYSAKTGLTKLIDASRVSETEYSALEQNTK

[17] = AUC infinity in C57BL6 mouse at 10 mg/kg, po; format: ADME, organism-based; design: route oral, time infinity, dose 10 mg/kg; details: in vivo

CCc1ccn2ccnc2c1N1CCCN(CC2CCN(C(=O)[C@H]3C[C@@H]4CC[C@H]3O4)CC2)CC1
logD [1]: 0.7

CCN(C)C(=O)N1C[C@@H]2[C@H](C1)[C@H]2C(=O)N[C@H]1CCN(c2nccn3ccnc23)C1
AUC(0-inf) [2]: 864 ng·h/mL
Cmax [3]: 1550 ng/mL
half-life [4]: 78 min
fraction unbound [5]: 0.4
Cmax [6]: 185 ng/mL
Tmax [7]: 4.8 min
half-life [8]: 12 min
bioavailability [9]: 5%
Vd [10]: 0.3 L/kg
half-life [11]: 30 min
fCmax [12]: 1.56 µM
Tmax [13]: 15 min
AUC(0-inf) [14]: 1530 ng·h/mL
bioavailability [15]: 71%
Ki [16]: 155 nM
AUC(0-inf) [17]: 199 ng·h/mL

COc1ccc2cccnc2c1N1CCCN(Cc2csc(-c3ccccc3)n2)CC1
logD [1]: 3.4
